Test results as given in patent US20030059852A1, “Modulation of integrin-mediated signal transduction” (COR Therapeutics, Inc., priority 1995, published 2003).

What was measured:
platelets = test: Platelet aggregation induced by agonists; format: cell-based, human
Experimental: (§1) Blood from healthy volunteers was collected into ⅙^th volume of 85 mM sodium citrate, 111 mM dextrose and 71 mM citric acid supplemented with 50 ng/ml PGI2 and 0.6 U/ml apyrase. After centrifugation of the blood at 160× g for 20 minutes the platelet rich plasma was removed and subjected to further centrifugation at 730× g for 10 minutes to sediment the platelets. Platelets were then resuspended in 13 mM trisodium citrate, 120 mM NaCl and 30 mM dextrose pH 7.0 and washed x 2 with this buffer. The platelets were then resuspended in 12 mM NaHCO3, 138 mM NaCl, 5.5 mM dextrose, 2.9 mM KCl, 10 mM Hepes, 1 mM CaCl2, 0.3 U/ml apyrase and allowed to recover for 1 hour at 37° C. Resting platelets were activated by the addition of 1 nM thrombin with stirring until aggregates were visible (1-3 minutes).
Additional experiments have been performed using a 2-D gel electrophoresis protocol and have yielded further information on the tyrosine phosphorylation of GPIIIa (FIG. 3). GPIIIa tyrosine phosphorylation can be observed in platelets induced to aggregate using agonists other than thrombin. […] In all cases platelet aggregation appears to be a prerequisite for GPIIIa tyrosine phosphorylation.

GP IIIa (β3) = test: In vivo tyrosine phosphorylation of GPIIIa, 2-D gel electrophoresis and anti-phosphotyrosine immunoblotting; format: cell-based, human
Experimental: as §1, with “Resting platelets were activated by the addition of 1 nM thrombin with stirring until aggregates were visible (1-3 minutes).” left out
330 μl of 3× non-reducing sample buffer containing 1 mM sodium vanadate was added to 1 ml of control or thrombin-aggregated platelets. […] This membrane was then immunoblotted with anti-phosphotyrosine antibodies and the relative amount of phosphorylated GPIIIa was determined by densitometry for both control and thrombin-aggregated samples. […]
However, a three to six fold enhancement of phosphorylation of GPIIIa was observed when platelets were lysed in a high concentration of SDS and the proteins immediately separated by 2-D gel electrophoresis prior to transfer to a nitrocellulose membrane, and immunoblotting to detect phosphorylated proteins with phosphotyrosine antibodies and with a GPIIIa antibody to quantitate GPIIIa. […]

Q: What does the source list for `Nc1ncnc2c1ncn2[C@@H]1O[C@H](COP(=O)(O)OP(=O)(O)O)[C@@H](O)[C@H]1O` [ADP]?
A: platelet aggregation (platelets): does not induce platelet aggregation; Aggregation (platelets; platelets stimulated with the indicated agonist): no; GPIIIa tyrosine phosphorylation (GP IIIa (β3); 2-D gel electrophoresis protocol): no increase; β3 Phosphorylation (GP IIIa (β3); platelets stimulated with the indicated agonist, 2-D gel, anti-phosphotyrosine immunoblotting): no
